According to ChEMBL document CHEMBL1149916, “Natural products, small molecules, and genetics in tuberculosis drug development” (J Med Chem, 2008):
pKi: −log10 of the molar value.

Tests used:
[1] = molecular target: T1, Enoyl-[acyl-carrier-protein] reductase [NADH] (Mycobacterium tuberculosis, UniProt P9WGR1); assay: Inhibition of Mycobacterium tuberculosis Enoyl-[acyl-carrier-protein] reductase
T1 sequence (P9WGR1 whole entry): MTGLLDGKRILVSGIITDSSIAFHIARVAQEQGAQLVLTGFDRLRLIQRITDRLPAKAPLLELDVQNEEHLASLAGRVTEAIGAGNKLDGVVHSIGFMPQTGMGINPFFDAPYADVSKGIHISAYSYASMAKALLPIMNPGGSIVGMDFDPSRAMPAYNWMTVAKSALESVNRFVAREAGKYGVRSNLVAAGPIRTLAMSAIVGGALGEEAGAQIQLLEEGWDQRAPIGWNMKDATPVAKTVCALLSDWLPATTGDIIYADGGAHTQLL

[2] = Inhibition of Mycobacterium tuberculosis acyl-CoA corboxylase corboxyltransferase domain 5

| Compound | pKi [1] | pKi [2] |
| --- | --- | --- |
| CCCCCCCCc1ccc(Oc2ccccc2)c(O)c1 | 9.00 |  |
| Nc1ccc(/N=N/c2ccc(-c3ccc(O)cc3)cc2)c2ccc(S(=O)(=O)O)cc12 |  | 4.89 |
